Consider 13 compounds from ChEMBL document CHEMBL5725720, “Pyrazolopyridines and pyrazolopyrimidines” (2016).

Assay [1] has as its target Tyrosine-protein kinase JAK1 (Homo sapiens, UniProt P23458). The assay can be described thus: (§1) JAK Caliper Enzyme Assay at 1 mM ATP: Test article was solubilized in dimethyl sulfoxide (DMSO) to a stock concentration of 30 mM. An 11-point half log dilution series was created in DMSO with a top concentration of 600 μM. […] The compound plates were diluted 1 to 60 resulting in a top final assay compound concentration of 10 μM and a 2% DMSO concentration.Test article and assay controls were added to a 384-well plate. Reaction mixtures contained 20 mM HEPES, pH 7.4, 10 mM magnesium chloride, 0.01% bovine serum albumin (BSA), 0.0005% Tween 20, 1 mM ATP and 1 μM peptide substrate. The JAK1 and TYK2 assays contained 1 μM of the IRStide peptide (5FAM-[…]) and the JAK2 and JAK3 assays contained 1 μM of the JAKtide peptide (FITC-[…]). […] Enzyme concentrations and incubation times were optimized for each new enzyme preps and were modified slightly over time to ensure 20%-30% phosphorylation. The assays were stopped with a final concentration of 10 mM EDTA, 0.1% Coating Reagent and 100 mM HEPES, pH=7.4. The assay plates were placed on a Caliper Life Science Lab Chip 3000 (LC3000) instrument, and each well was sampled using appropriate separation conditions to measure the unphosphorylated and phosphorylated peptide.

Assay [2] deals with T1, Tyrosine-protein kinase JAK3 (Homo sapiens, UniProt P52333).
T1 sequence (P52333 whole entry): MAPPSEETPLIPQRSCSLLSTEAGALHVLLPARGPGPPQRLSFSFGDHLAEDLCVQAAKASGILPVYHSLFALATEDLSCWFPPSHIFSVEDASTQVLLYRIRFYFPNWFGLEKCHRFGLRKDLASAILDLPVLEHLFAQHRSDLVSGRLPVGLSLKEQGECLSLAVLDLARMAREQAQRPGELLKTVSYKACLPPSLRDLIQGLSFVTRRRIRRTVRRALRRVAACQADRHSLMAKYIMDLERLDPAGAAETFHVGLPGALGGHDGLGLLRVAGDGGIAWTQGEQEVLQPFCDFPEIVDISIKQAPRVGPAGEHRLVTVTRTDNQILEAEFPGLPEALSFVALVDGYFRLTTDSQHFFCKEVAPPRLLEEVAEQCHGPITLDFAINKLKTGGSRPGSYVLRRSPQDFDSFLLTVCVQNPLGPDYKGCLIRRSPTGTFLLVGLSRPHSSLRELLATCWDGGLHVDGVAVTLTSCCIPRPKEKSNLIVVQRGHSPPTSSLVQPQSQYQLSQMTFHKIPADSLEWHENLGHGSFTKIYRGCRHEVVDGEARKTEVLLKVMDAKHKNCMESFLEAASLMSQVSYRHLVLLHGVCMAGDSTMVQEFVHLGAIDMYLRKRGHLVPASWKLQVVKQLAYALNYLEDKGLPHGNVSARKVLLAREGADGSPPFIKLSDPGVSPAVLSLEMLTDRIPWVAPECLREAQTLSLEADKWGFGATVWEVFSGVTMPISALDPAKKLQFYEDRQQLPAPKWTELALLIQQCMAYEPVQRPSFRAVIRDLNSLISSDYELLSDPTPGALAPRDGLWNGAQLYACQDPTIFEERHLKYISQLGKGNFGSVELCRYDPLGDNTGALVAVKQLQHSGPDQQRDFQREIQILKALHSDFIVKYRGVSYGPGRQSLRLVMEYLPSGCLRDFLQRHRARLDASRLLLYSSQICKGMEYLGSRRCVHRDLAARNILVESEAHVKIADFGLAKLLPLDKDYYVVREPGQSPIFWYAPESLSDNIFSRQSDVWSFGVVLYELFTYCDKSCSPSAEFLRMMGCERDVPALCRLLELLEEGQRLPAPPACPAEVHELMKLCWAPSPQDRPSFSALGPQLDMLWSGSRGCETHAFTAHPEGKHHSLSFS
The assay is described as §1.

Assay [3] addresses Non-receptor tyrosine-protein kinase TYK2 (Homo sapiens, UniProt P29597). The description is as §1.
The target of assay [4] is Tyrosine-protein kinase JAK2 (Homo sapiens, UniProt O60674). Put plainly: JAK Caliper Enzyme Assay at 1 mM ATP: Test article was solubilized in dimethyl sulfoxide (DMSO) to a stock concentration of 30 mM. An 11-point half log dilution series was created in DMSO with a top concentration of 600 μM. […] The compound plates were diluted 1 to 60 resulting in a top final assay compound concentration of 10 μM and a 2% DMSO concentration.Test article and assay controls were added to a 384-well plate. Reaction mixtures contained 20 mM HEPES, pH 7.4, 10 mM magnesium chloride, 0.01% bovine serum albumin (BSA), 0.0005% Tween 20, 1 mM ATP and 1 μM peptide substrate. […] Enzyme concentrations and incubation times were optimized for each new enzyme preps and were modified slightly over time to ensure 20%-30% phosphorylation. The assays were stopped with a final concentration of 10 mM EDTA, 0.1% Coating Reagent and 100 mM HEPES, pH=7.4. The assay plates were placed on a Caliper Life Science Lab Chip 3000 (LC3000) instrument, and each well was sampled using appropriate separation conditions to measure the unphosphorylated and phosphorylated peptide.
Chain of Tyrosine-protein kinase JAK2 (O60674 whole entry): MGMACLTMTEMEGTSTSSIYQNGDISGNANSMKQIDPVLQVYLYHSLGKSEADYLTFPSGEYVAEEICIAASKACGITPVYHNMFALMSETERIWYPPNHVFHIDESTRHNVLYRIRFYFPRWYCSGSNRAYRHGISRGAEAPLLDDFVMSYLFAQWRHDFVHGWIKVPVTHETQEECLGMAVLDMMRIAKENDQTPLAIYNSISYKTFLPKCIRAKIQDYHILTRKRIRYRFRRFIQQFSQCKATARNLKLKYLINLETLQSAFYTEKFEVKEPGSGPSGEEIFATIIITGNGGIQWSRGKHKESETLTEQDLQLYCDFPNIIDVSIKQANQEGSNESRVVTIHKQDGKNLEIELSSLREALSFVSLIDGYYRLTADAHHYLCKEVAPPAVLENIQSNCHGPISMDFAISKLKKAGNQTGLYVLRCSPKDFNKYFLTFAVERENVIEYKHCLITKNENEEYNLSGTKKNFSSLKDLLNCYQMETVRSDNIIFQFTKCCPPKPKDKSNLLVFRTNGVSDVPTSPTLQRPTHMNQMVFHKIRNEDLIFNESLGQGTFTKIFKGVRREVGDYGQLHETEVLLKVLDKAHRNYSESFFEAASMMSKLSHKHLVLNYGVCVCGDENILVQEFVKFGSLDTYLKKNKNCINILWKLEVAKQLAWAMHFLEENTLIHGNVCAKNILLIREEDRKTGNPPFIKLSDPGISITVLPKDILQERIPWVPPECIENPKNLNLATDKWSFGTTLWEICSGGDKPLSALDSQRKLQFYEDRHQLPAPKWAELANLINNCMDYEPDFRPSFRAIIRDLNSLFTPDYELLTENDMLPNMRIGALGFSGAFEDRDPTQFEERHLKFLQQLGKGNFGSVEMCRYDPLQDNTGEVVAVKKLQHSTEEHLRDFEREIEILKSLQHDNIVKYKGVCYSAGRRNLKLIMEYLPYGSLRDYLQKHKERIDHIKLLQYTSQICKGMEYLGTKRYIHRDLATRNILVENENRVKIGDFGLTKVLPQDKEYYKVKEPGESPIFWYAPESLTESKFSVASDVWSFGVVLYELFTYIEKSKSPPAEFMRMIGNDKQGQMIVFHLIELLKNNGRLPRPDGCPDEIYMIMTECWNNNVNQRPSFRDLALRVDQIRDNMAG

Chain of Non-receptor tyrosine-protein kinase TYK2 (P29597 whole entry): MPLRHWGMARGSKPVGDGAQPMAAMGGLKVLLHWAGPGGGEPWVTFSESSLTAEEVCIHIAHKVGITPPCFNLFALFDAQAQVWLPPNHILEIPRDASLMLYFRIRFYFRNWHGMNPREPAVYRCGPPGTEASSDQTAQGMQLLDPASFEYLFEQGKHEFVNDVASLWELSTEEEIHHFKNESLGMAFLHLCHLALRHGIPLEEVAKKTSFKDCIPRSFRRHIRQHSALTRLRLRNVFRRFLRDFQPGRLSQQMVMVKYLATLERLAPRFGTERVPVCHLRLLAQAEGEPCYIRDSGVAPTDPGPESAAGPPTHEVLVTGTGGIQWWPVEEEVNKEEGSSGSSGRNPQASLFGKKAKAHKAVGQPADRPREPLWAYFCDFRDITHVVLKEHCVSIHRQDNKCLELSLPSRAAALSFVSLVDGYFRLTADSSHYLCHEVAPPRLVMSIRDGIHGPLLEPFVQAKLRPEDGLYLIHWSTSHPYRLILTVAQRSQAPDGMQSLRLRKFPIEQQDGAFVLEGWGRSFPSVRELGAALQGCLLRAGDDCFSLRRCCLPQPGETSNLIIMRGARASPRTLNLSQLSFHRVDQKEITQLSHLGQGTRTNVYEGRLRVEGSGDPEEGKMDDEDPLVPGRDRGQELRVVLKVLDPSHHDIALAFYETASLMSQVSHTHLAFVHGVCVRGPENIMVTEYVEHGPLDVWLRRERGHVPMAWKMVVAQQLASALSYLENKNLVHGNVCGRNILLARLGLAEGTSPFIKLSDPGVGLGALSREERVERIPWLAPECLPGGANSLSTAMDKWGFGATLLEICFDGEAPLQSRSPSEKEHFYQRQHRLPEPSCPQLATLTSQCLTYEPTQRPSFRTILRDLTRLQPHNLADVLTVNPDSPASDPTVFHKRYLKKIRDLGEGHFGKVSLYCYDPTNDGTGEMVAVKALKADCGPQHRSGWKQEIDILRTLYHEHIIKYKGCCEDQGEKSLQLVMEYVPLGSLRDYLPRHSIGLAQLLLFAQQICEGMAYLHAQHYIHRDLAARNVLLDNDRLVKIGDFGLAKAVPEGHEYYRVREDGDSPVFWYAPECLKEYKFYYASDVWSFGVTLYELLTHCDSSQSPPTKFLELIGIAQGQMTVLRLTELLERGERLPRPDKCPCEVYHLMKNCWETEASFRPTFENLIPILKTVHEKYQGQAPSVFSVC
Chain of Tyrosine-protein kinase JAK1 (P23458 whole entry): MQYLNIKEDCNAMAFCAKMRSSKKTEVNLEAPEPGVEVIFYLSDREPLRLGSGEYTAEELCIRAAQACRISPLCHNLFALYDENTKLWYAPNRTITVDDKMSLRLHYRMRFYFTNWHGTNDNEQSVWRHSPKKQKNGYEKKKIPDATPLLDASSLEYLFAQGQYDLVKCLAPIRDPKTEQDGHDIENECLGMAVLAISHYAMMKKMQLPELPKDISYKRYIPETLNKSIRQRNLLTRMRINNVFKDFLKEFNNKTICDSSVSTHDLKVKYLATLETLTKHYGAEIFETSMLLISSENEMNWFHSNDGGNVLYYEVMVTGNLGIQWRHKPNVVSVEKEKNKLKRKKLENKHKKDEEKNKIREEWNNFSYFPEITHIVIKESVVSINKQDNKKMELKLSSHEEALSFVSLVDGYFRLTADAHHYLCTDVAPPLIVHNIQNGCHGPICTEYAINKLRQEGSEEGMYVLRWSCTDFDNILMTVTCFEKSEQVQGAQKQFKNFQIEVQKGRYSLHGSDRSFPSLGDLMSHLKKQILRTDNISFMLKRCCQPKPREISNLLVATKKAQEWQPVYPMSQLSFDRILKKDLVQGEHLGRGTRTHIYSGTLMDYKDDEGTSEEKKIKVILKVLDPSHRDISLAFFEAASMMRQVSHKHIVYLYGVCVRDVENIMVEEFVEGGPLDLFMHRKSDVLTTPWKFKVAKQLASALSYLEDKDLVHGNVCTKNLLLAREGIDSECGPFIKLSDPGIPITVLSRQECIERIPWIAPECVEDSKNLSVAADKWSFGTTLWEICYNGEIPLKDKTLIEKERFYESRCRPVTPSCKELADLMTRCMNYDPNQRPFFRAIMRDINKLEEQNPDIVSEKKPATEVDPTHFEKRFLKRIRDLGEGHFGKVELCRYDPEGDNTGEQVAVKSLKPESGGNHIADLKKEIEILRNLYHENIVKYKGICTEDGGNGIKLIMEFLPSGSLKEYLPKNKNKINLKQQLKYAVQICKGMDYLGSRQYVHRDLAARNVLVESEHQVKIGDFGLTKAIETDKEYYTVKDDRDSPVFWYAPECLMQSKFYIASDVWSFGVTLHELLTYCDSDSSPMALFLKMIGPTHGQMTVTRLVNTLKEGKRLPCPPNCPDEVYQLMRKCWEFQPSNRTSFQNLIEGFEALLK

For the compound `CC(=O)N1CCc2[nH]c(-c3n[nH]c4nc(-c5cc(F)c(O)cc5CC(F)(F)F)nc(NCc5cc(O)ccc5N(C)S(C)(=O)=O)c34)nc2C1`, in assay [1], the IC50 came out at 3.2 nM.

In the case of `CCc1cc(O)ccc1-c1cc2[nH]ncc2c(N2CCc3cc(OCCOC)ccc3C2)n1`, the concentration for half-maximal inhibition (IC50) in assay [2] worked out at 56.2 nM; in assay [1], 10.1 nM; in assay [3], 289 nM; in assay [4], 25.9 nM.

Turning to `CCc1cc(O)ccc1-c1cc2[nH]ncc2c(N2CCc3cc(-n4cnc(C)c4)ccc3C2)n1`, the IC50 in assay [2] turned out to be 42.4 nM; in assay [1], 10.7 nM; in assay [3] it was 723 nM; in assay [4], 26.3 nM.

Consider `CCc1cc(O)c(F)cc1-c1cc2[nH]ncc2c(NCc2ccccc2N(C)S(=O)(=O)CC)n1`, for which the IC50 in assay [2] was found to be 17.3 nM; in assay [1] it was 0.7 nM; in assay [3], 8.4 nM.

Turning to `CCc1cc(O)ccc1-c1cc2[nH]ncc2c(N2CCc3cccc(OC)c3C2)n1`, the concentration for half-maximal inhibition (IC50) in assay [2] was 78.1 nM; in assay [3] it was 478 nM; in assay [4], 25.1 nM.

Turning to `CCc1cc(O)ccc1-c1cc2[nH]ncc2c(N2CCc3c(Cl)cccc3C2)n1`, the IC50 stood at 111 nM in assay [2], 39.4 nM in assay [1], 561 nM in assay [3] and 46.5 nM in assay [4].

Take `CN(c1ccc(O)cc1CNc1nc(-c2cc(F)c(O)cc2CC(F)(F)F)nc2[nH]nc(C(N)=O)c12)S(=O)(=O)c1ccccc1`: the concentration for half-maximal inhibition (IC50) in assay [4] came to 123 nM.

Regarding `CCc1cc(O)ccc1-c1cc2[nH]ncc2c(N2CCc3cc(OC)c(OCc4ccccc4)cc3C2)n1`, the 50% inhibitory concentration (IC50) stood at 340 nM in assay [2], 67.4 nM in assay [1] and 2730 nM in assay [3].

Take `CSCCNc1nc(-c2cc(F)c(O)cc2CC(F)(F)F)cc2[nH]nc(-c3nc4c([nH]3)CCN(Cc3ccccc3)C4)c12`: the IC50 in assay [2] came out at 589 nM; in assay [1], 50 nM; in assay [3] it was 172 nM; in assay [4] it was 196 nM.

For the compound `CCc1cc(O)ccc1-c1cc2[nH]ncc2c(N2CCc3cc(F)ccc3C2)n1`, the IC50 worked out at 40.8 nM in assay [2], 9.7 nM in assay [1], 302 nM in assay [3] and 16.9 nM in assay [4].

Regarding `CCCCN(c1ccccc1CN(C)c1nc(-c2cc(F)c(O)cc2CC)cc2[nH]ncc12)S(C)(=O)=O`, the figures for the IC50 in assay [2], in assay [1] and in assay [4] were 61.6 nM, 19.5 nM and 43.2 nM, respectively.

With `CCc1cc(O)ccc1-c1cc2[nH]ncc2c(N2CCc3ccc(OC)c(OC)c3C2)n1`, the half-inhibitory concentration (IC50) turned out to be 194 nM in assay [2], 13.8 nM in assay [1], 1540 nM in assay [3] and 52.4 nM in assay [4].

For `CN(c1ccc(F)cc1CNc1nc(-c2cc(F)c(O)cc2CC(F)(F)F)cc2[nH]nc(C(N)=O)c12)S(C)(=O)=O`, the concentration for half-maximal inhibition (IC50) in assay [2] was 140 nM; in assay [1], 6.6 nM; in assay [3] it was 127 nM; in assay [4] it was 41.1 nM.

A word on the IC50: it is the concentration that inhibits the measured activity by half.
